The source of these data is ChEMBL document CHEMBL1133144, “Synthesis and structure-activity relationships of a new class of 1-oxacephem-based human chymase inhibitors” (Bioorg Med Chem Lett, 2000).

One experiment concerns the target T1, Chymase (Homo sapiens, UniProt P23946).
T1 sequence (P23946 whole entry): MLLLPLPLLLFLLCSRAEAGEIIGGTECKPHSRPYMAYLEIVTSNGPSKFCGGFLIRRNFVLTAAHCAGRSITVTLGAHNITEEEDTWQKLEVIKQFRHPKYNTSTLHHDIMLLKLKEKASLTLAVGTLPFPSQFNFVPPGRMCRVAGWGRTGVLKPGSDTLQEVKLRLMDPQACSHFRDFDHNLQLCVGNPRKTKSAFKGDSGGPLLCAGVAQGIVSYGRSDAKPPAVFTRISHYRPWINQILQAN
Nature of the experiment: Inhibitory activity against human serine protease chymase.

A further experiment concerns the target T2, Cathepsin G (Homo sapiens, UniProt P08311).
T2 sequence (P08311 whole entry): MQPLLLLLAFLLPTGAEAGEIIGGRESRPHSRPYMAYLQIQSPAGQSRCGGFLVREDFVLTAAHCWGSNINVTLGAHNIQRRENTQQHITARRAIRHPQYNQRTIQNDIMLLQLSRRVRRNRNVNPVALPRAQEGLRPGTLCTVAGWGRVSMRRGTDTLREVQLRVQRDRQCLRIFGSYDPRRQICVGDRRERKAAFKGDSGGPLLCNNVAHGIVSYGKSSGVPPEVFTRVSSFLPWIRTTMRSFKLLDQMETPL
Nature of the experiment: The compound was evaluated for the inhibitory activity against cathepsin G.

Another experiment concerns the target Prothrombin (Homo sapiens, UniProt P00734). In words: The compound was evaluated for the inhibitory activity against thrombin.
A further experiment concerns the target Plasminogen (Homo sapiens, UniProt P00747). Nature of the experiment: The compound was evaluated for the inhibitory activity against plasmin.
The target in a further experiment is T3, Serine protease 1 (Bos taurus, UniProt P00760).
T3 sequence (P00760 whole entry): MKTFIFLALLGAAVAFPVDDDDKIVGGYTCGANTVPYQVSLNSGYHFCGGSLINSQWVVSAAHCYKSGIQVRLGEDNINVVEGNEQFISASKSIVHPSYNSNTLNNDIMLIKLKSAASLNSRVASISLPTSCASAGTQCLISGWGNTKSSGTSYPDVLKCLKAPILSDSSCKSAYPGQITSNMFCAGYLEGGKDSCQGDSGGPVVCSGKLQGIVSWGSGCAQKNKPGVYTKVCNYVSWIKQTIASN
Nature of the experiment: The compound was evaluated for the inhibitory activity against trypsin.

The next experiment addresses T4, Neutrophil elastase (Homo sapiens, UniProt P08246).
T4 sequence (P08246 whole entry): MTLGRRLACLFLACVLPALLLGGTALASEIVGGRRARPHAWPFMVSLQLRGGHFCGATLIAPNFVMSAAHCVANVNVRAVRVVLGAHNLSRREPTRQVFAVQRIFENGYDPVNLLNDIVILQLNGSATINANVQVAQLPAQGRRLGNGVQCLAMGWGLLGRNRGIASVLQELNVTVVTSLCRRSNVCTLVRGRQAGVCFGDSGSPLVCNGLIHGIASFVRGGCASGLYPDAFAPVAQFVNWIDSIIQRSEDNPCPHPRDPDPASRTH
Nature of the experiment: The compound was evaluated for the inhibitory activity against human neutrophil elastase.

Chain of Plasminogen (P00747 97-580 limits assumed): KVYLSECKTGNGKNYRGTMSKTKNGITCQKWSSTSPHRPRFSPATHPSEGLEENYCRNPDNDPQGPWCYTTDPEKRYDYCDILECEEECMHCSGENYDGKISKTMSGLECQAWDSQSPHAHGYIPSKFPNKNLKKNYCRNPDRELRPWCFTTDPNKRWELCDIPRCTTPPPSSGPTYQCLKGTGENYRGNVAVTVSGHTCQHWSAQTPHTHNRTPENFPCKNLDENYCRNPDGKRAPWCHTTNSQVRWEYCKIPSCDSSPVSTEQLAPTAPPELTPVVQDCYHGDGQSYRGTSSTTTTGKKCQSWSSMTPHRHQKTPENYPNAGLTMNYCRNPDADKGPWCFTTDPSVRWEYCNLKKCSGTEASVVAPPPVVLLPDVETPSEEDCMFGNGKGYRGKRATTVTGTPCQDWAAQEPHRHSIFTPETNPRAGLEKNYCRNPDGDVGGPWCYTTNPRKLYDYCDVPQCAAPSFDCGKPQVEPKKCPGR
Chain of Plasminogen (P00747 581-810 limits assumed): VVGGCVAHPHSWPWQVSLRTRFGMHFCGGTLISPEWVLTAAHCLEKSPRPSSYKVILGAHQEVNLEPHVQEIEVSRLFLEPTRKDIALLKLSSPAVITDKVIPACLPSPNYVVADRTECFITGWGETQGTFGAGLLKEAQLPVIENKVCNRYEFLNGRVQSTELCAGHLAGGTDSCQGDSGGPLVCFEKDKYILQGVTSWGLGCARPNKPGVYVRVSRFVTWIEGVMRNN

By IC50 is commonly meant the concentration at which inhibition is half-maximal. The low end stands for inhibition by little substance, the high end for a need for much substance. At Chymase, `CO[C@@]1(NC(=O)Cc2ccc(O)cc2)C(=O)N2C(C(=O)OCc3cccc(C)c3)=C(CCl)CO[C@@H]21` showed an IC50 of 150 nM. For the molecule `COc1ccc(C(=O)N[C@]2(OC)C(=O)N3C(C(=O)OC(c4ccccc4)c4ccccc4)=C(CSc4nnnn4C)CO[C@@H]32)cc1`, the IC50 on Chymase was greater than 10000 nM. The molecule `CO[C@@]1(NC(=O)Cc2ccc(O)cc2)C(=O)N2C(C(=O)OCc3cccc(C)c3)=C(C)CO[C@@H]21` registered an IC50 against Chymase greater than 10000 nM. `CO[C@@]1(NC(=O)Cc2ccc(O)cc2)C(=O)N2C(C(=O)N3CCCC3)=C(CSc3nnnn3C)CO[C@@H]21` yielded an IC50 at Chymase greater than 10000 nM. For the molecule `CO[C@@]1(NC(=O)Cc2ccc(-c3ccccc3)cc2)C(=O)N2C(C(=O)OC(c3ccccc3)c3ccccc3)=C(CSc3nnnn3C)CO[C@@H]21`, the IC50 against Chymase was greater than 10000 nM.

For `CO[C@@]1(NC(=O)Cc2ccc(Br)cc2)C(=O)N2C(C(=O)OC(c3ccccc3)c3ccccc3)=C(CSc3nnnn3C)CO[C@@H]21`, on Chymase, the midpoint of inhibition, the IC50, lay at 6800 nM.

Turning to `COc1ccccc1C(=O)N[C@]1(OC)C(=O)N2C(C(=O)OCc3cccc(C)c3)=C(CSc3nncn3CC(=O)O)CO[C@@H]21`, the IC50 was 230 nM against Cathepsin G; 430 nM on Prothrombin; greater than 10000 nM against Plasminogen; 440 nM against Serine protease 1; greater than 10000 nM against Neutrophil elastase. On Chymase, `CO[C@@]1(NC(=O)c2ccccc2Cl)C(=O)N2C(C(=O)OC(c3ccccc3)c3ccccc3)=C(CSc3nnnn3C)CO[C@@H]21` gave an IC50 of 1700 nM. The molecule `CO[C@@]1(NC(=O)Cc2ccc(O)cc2)C(=O)N2C(C(=O)OCc3cccc(C)c3)=C(CSc3nncn3C)CO[C@@H]21` came in with an IC50 against Chymase of 4000 nM.
